Calls of active or inactive are those of the source. The rule behind the calls is not given here.
tested on: not listed separately; experiment: Quorum LuxO agonist, light production in absence of autoinducers, Vibrio cholerae, confirmatory (AID 624269); details: Vibrio cholerae BH1651 luxOD47E, luciferase light induction, 6 h; at 8 µM (top of the series)

Row | Structure (SMILES) | activation
1 | CCCn1nnnc1NCc1ccccc1Cl | 0% (inactive)
2 | O=c1ncn(-c2cccc(Cl)c2)c2ccccc12 | 0% (inactive)

same assay, conditions: Vibrio cholerae BH1651 luxOD47E, luciferase light induction, 6 h; at 35 µM (top of the series)

Row | Structure (SMILES) | activation
3 | COc1ccccc1NC(=O)COC(=O)c1ccc(C)cc1 | 0% (inactive)
4 | Cc1c(Cl)cccc1-n1cnc(=O)c2ccccc21 | 50% (inactive)
5 | CCn1nnc(NCc2ccc(C)cc2)n1 | 0% (inactive)
6 | CCCn1nnnc1NCc1ccc(N(CC)CC)cc1 | 0% (inactive)
7 | CCCn1nnnc1NCc1ccc(C(C)C)cc1 | 33.3% (inactive)
8 | COc1ccc(Cl)cc1NC(=O)COC(=O)c1ccc(C)o1 | 0% (inactive)
9 | CCCn1nnnc1NCc1ccc(N2CCCC2)cc1 | -50% (inactive)
10 | CCn1nnnc1NCc1ccc(N2CCCC2)cc1 | 66.7% (inactive)
11 | CCOc1ccc(Nc2ccc3nonc3c2[N+](=O)[O-])cc1 | 0% (inactive)
12 | Cc1ccc(CC(=O)NC2CCCC2)cc1 | 0% (inactive)
13 | COc1ccccc1NC(=O)COC(=O)c1cc2c(s1)CCC2 | 0% (inactive)
14 | CCn1c(CC(=O)Nc2cccc(Cl)c2Cl)nnc1SCCOc1ccc(OC)cc1 | -50% (inactive)
15 | COc1ccccc1NC(=O)COC(=O)c1oc2ccccc2c1C | 0% (inactive)
16 | CCC(C)NC(=O)Cc1ccc(-c2ccccc2)cc1 (stereo not given) | -33.3% (inactive)

tested on: Vibrio cholerae BH1651 luxOD47E, luciferase light induction, 6 h; experiment: as above; details: not given

Row | Structure (SMILES) | AC40
17 | O=C(Nc1nnc(-c2ccc3c(c2)OCCO3)o1)C1CCCCC1 | 0.865 nM
18 | Cc1ccc2cc3c(NC(=O)c4ccco4)nn(C)c3nc2c1 | > 35000 nM (inactive)
19 | O=C(Cc1ccc(-c2ccccc2)cc1)NC1CCCC1 | 239 nM
20 | Cc1ccc(OCCNC(=O)c2cccc(C)c2)cc1 | 312 nM

Reference: PubChem BioAssay AID624269 (Broad Institute, 2012)
